The values below come from US10421760B2, “Pyrrolo[2,3-d]pyrimidine compound or salt thereof” (TAIHO PHARMACEUTICAL CO., LTD., priority 2015, dated 2019).

The target in assay [1] is purified recombinant human JAK1 protein (Homo sapiens (Human), UniProt P23458). Kind of assay: JAK1 kinase-inhibiting activity (mobility shift, LabChip EZ Reader II). In kind it is biochemical. The settings on record: ATP 75 μM, 25° C., 120 minutes. As for the experimental part: 1) Measurement of JAK1 Kinase-Inhibiting Activity
The activity of the compound of the present invention to inhibit the activity of JAK1 kinase was measured.
Among materials for the measurement of this inhibiting activity, a substrate peptide and a kinase protein were acquired as follows. As such a substrate peptide, a substrate peptide for QSS Assist JAK1-MSA assay kit (Carna Biosciences, Inc.) was purchased. As such a kinase protein, a purified recombinant human JAK1 protein (Carna Biosciences, Inc.) was purchased.
The method for measuring the inhibiting activity is as follows. First, the compounds of the present invention were each dissolved in dimethyl sulfoxide (DMSO), and a serial dilution was then prepared using DMSO. Subsequently, a serial dilution solution of the compound (the final concentration of DMSO upon a kinase reaction: 5.0%) or DMSO (final concentration: 5.0%) was mixed with a solution comprising the substrate peptide (final concentration: 1 μM), magnesium chloride (final concentration: 5 mM) and ATP (final concentration: 75 μM) in a buffer for kinase reaction (20 mM HEPES (pH 7.5), 2 mM dithiothreitol and 0.01% Triton X-100). Thereafter, a JAK1 protein was further added to the mixed solution, and the obtained mixture was then incubated at 25° C. for 120 minutes to carry out a kinase reaction. To the reaction solution, EDTA was added to a final concentration of 30 mM, so as to terminate the reaction. Finally, using LabChip EZ Reader II (Perkin Elmer Corp.), an unphosphorylated substrate peptide (S) and a phosphorylated peptide (P) were subjected to microchannel capillary electrophoresis, so that the two peptides were separated from each other and were then detected. The amount of a phosphorylation reaction was obtained based on the heights of the peaks of S and P, and the concentration of the compound capable of inhibiting 50% of the phosphorylation reaction was defined as an IC50 value (nM).

Assay [2] concerns the target purified recombinant human JAK2 protein (Homo sapiens (Human), UniProt O60674). Briefly: JAK2 kinase-inhibiting activity (mobility shift, LabChip EZ Reader II). It is filed as biochemical. The following applies: ATP 10 μM, 25° C., 80 minutes. As for the experimental part: 2) Measurement of JAK2 Kinase-Inhibiting Activity
The activity of the compound of the present invention to inhibit the activity of JAK2 kinase was measured.
Among materials for the measurement of this inhibiting activity, a substrate peptide and a kinase protein were acquired as follows. As such a substrate peptide, FL-Peptide 22 (Perkin Elmer Corp.) was purchased. As such a kinase protein, a purified recombinant human JAK2 protein (Carna Biosciences, Inc.) was purchased.
(§1) The method for measuring the inhibiting activity is as follows. First, a serial dilution of the compound of the present invention was prepared by the same method as that described in the above section regarding JAK1. This serial dilution solution (the final concentration of DMSO upon a kinase reaction: 5.0%) or DMSO (final concentration: 5.0%) was mixed with a solution comprising the substrate peptide (final concentration: 1 μM), magnesium chloride (final concentration: 10 mM) and ATP (final concentration: 10 μM) in a buffer for kinase reaction (15 mM Tris (pH 7.5), 2 mM dithiothreitol and 0.01% Tween 20). Thereafter, a JAK2 protein was further added to the mixed solution, and the obtained mixture was then incubated at 25° C. for 80 minutes to carry out a kinase reaction. To the reaction solution, EDTA was added to a final concentration of 30 mM, so as to terminate the reaction. After termination of the reaction, the measurement and the data analysis were carried out by the same methods as those described in the above section regarding JAK1.

Assay [3] concerns the target purified recombinant human JAK3 protein (Homo sapiens (Human), UniProt P52333). Briefly: JAK3 kinase-inhibiting activity (mobility shift, LabChip EZ Reader II). The following applies: for IC50: ATP 5 μM, 25° C., 80 minutes. It is filed as biochemical. On the procedure: 3) Measurement of JAK3 Kinase-Inhibiting Activity
The activity of the compound of the present invention to inhibit the activity of JAK3 kinase was measured.
Among materials for the measurement of this inhibiting activity, a substrate peptide and a kinase protein were acquired as follows. As such a substrate peptide, a substrate peptide for QSS Assist JAK3-MSA assay kit (Carna Biosciences, Inc.) was purchased. As such a kinase protein, a purified recombinant human JAK3 protein (Carna Biosciences, Inc.) was purchased.
as §1, with “5” for “10”, “(20” for “(15”, “HEPES” for “Tris”, “Triton X-100).” for “Tween 20).”, “JAK3” for “JAK2”

For another assay, the system named is human PBMC. Briefly: IL-2-dependent growth of human peripheral blood mononuclear cells (CellTiter-Glo). It is filed as cell-based. The settings on record: 48 h, IL-2 2 ng/mL stimulation, 2 days. On the procedure:
The activity of the compound of the present invention to inhibit the IL-2-dependent growth reaction of human PBMC, which is caused by JAK3, was measured (Arthritis Rheum. 2010; 62(8): 2283-93).
Using a medium comprising 10 μg/mL PHA-M (Sigma) (which is RPMI-1640 (Sigma) comprising 10% human serum type AB (MP Biomedicals)), human PBMC (C.T.L.) (cell density: 1×10^6 cells/mL) was cultured at 37° C. in a culture vessel comprising 5% carbon dioxide for 3 days. Thereafter, the culture was washed with RPMI-1640 four times, and a medium (RPMI-1640 comprising 10% human serum type AB) was then added to the resultant culture to prepare a cell suspension. The cells (1×10^4 cells per well) and the serially diluted compound of the present invention were added to each well of a 96-well U-bottom microplate, and the thus obtained mixture was then cultured at 37° C. in a culture vessel comprising 5% carbon dioxide for 30 minutes. After completion of the culture, recombinant human IL-2 (Peprotech) was added to the culture to a final concentration of 2 ng/mL, and the obtained mixture was then stirred at 37° C. in a culture vessel comprising 5% carbon dioxide for 2 days (1×10^4 cells/100 μl/each well). After completion of the culture, the resultant was left at a room temperature for 30 minutes, and 100 μl of CellTiter-Glo Luminescent Cell Viability Assay (Promega) was then added to the resultant, followed by stirring it. Thereafter, the reaction mixture was left for 10 minutes, and the amount of a luminescence derived from living cells in each well was then measured using a microplate reader (TECAN). The inhibition rate of the present compound to the cell growth caused by IL-2 stimulation was calculated, and the concentration of the compound capable of inhibiting 50% of the cell growth was defined as an IC50 value (nM).

Each structure is given as a SMILES string.

Chain of purified recombinant human JAK1 protein (P23458 whole entry): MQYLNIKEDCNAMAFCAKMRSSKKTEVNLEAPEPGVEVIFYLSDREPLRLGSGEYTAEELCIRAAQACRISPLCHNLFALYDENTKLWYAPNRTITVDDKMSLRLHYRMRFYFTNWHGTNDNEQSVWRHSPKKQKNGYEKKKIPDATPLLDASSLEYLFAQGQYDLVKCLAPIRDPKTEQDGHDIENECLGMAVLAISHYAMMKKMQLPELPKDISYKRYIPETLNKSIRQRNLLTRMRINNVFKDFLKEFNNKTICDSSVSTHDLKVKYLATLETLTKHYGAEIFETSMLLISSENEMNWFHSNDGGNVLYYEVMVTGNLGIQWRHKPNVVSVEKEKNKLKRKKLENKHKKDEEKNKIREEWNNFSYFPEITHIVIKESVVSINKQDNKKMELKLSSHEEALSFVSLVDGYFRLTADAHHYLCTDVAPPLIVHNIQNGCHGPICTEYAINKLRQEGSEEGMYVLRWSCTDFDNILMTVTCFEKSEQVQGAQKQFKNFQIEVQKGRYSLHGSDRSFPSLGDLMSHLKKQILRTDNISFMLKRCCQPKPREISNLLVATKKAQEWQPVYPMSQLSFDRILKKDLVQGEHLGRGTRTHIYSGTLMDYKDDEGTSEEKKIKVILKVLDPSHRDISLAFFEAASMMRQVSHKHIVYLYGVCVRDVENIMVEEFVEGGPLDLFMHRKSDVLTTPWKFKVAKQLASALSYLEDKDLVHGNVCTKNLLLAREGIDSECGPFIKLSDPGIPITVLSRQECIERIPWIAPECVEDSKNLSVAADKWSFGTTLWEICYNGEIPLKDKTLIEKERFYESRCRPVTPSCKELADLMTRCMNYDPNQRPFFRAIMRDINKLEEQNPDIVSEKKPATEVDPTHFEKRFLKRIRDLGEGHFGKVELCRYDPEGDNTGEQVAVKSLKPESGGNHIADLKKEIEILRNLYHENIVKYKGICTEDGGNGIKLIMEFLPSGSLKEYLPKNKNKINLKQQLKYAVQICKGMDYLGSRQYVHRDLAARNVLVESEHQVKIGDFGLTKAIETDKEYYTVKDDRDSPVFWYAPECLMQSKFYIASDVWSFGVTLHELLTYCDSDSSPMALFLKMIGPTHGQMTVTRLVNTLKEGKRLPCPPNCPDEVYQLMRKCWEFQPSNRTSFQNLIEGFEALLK
Chain of purified recombinant human JAK3 protein (P52333 whole entry): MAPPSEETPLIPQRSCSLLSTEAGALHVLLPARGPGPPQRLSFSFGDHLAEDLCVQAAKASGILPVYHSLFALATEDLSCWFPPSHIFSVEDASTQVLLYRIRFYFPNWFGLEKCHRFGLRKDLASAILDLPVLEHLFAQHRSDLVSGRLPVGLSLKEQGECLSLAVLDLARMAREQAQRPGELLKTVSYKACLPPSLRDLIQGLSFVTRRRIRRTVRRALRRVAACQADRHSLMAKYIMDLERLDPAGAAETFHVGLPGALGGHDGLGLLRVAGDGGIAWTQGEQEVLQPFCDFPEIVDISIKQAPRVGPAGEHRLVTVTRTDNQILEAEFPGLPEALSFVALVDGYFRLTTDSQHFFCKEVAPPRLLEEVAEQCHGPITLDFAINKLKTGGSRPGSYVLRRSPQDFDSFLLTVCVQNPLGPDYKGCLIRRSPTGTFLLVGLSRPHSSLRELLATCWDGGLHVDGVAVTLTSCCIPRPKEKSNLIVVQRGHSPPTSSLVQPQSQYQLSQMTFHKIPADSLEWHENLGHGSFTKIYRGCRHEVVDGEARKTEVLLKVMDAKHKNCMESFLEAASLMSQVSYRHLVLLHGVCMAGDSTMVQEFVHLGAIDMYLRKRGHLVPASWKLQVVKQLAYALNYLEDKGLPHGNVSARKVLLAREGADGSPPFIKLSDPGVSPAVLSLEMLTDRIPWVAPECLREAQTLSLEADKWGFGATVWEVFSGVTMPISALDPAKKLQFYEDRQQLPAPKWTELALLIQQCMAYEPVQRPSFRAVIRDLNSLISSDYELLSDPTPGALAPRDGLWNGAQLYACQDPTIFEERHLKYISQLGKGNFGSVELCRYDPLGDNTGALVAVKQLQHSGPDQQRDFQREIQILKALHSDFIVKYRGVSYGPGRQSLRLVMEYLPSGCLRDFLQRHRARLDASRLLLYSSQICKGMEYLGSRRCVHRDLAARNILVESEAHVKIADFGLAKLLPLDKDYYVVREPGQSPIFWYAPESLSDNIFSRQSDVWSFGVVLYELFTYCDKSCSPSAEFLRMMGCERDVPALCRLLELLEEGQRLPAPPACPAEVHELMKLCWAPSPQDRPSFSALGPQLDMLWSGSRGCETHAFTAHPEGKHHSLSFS
Chain of purified recombinant human JAK2 protein (O60674 whole entry): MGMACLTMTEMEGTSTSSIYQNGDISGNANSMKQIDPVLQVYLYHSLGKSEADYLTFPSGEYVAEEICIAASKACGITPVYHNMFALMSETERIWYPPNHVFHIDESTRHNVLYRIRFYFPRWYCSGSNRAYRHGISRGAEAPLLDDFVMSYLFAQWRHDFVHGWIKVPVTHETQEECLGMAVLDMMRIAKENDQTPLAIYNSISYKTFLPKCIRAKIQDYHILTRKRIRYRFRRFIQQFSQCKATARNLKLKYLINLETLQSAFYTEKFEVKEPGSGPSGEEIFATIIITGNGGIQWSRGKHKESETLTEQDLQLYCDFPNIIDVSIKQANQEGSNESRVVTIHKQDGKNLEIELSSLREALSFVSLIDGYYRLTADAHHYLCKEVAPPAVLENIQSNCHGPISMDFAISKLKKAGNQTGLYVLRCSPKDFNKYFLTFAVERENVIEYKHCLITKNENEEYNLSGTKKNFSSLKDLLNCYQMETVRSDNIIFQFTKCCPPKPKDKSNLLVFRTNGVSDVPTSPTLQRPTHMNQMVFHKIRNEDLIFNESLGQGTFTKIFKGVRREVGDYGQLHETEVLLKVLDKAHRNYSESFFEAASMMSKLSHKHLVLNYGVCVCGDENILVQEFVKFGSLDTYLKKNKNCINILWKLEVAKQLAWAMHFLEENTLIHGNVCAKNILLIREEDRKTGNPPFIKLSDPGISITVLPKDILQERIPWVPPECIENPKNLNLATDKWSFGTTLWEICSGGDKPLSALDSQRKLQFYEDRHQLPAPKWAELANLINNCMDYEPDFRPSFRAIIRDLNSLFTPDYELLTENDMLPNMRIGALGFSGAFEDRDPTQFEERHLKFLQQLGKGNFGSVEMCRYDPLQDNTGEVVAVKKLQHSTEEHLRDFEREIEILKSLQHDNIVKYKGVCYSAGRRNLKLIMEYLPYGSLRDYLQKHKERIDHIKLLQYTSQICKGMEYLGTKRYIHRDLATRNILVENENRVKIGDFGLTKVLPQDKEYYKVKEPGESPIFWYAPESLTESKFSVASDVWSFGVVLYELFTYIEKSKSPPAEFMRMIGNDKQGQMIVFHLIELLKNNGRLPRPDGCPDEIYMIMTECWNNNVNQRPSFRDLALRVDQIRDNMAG

As to `C=CC(=O)N[C@H]1CCC=C(c2ncnc3[nH]cc(-c4ccco4)c23)C1` [Compound 7, (S)—N-(3-(5-(Furan-2-yl)-7H-pyrrolo[2,3-d]pyrimidin-4-yl)cyclohex-3-en-1-yl)acrylamide], the IC50 in assay [1] was 0.44 µM; in assay [2] it was 0.33 µM; in assay [3], less than 0.0003 µM; in the assay on human PBMC, 0.018 µM.
In the assay on human PBMC, `C=CC(=O)NC1CCC=C(c2ncnc3[nH]cc(-c4ccc(C)cc4)c23)C1` (centres unmarked) [Comparative Example 4, N-(3-(5-(p-Tolyl)-7H-pyrrolo[2,3-d]pyrimidin-4-yl)cyclohex-3-en-1-yl)acrylamide, reference compound] came in with an IC50 greater than 1 µM.
As to `C=CC(=O)NC1C=C(c2ncnc3[nH]cc(-c4ccco4)c23)CCC1` (centres unmarked) [Compound 15, N-(3-(5-(Furan-2-yl)-7H-pyrrolo[2,3-d]pyrimidin-4-yl)cyclohex-2-en-1-yl)acrylamide], the IC50 in assay [1] turned out to be 2.6 µM; in assay [2] it was 0.45 µM; in assay [3], 0.00033 µM.
For `C=CC(=O)NC1C=C(c2ncnc3[nH]cc(-c4ccccc4)c23)CCC1` (centres unmarked) [Compound 12, N-(3-(5-Phenyl-7H-pyrrolo[2,3-d]pyrimidin-4-yl)cyclohex-2-en-1-yl)acrylamide], in that order: 3.2 µM, 0.87 µM and 0.00035 µM.
Take `C=CC(=O)NC1CCC=C(c2ncnc3[nH]cc(-c4cccs4)c23)C1` (centres unmarked) [Compound 2, N-(3-(5-(Thiophen-2-yl)-7H-pyrrolo[2,3-d]pyrimidin-4-yl)cyclohex-3-en-1-yl)acrylamide]: the IC50 was 0.9 µM in assay [1], 0.48 µM in assay [2], less than 0.0003 µM in assay [3] and 0.11 µM in the assay on human PBMC.
For the molecule `C=C(C)C(=O)NC1CCC=C(c2ncnc3[nH]cc(-c4ccccc4)c23)C1` (centres unmarked) [Comparative Example 1, N-(3-(5-Phenyl-7H-pyrrolo[2,3-d]pyrimidin-4-yl)cyclohex-3-en-1-yl)methacrylamide, reference compound], the concentration for half-maximal inhibition (IC50) worked out at 0.88 µM in assay [1] and 0.044 µM in assay [3]. The “JAK3-inhibiting activity attenuated in comparison to the compound of the present invention” value (“JAK3-inhibiting activity attenuated” below) in assay [3] (in terms of IC50 value) was no less than 20 times.
`C=CC(=O)NC1CCC=C(c2ncnc3[nH]cc(-c4ccoc4)c23)C1` (centres unmarked) [Compound 4, N-(3-(5-(Furan-3-yl)-7H-pyrrolo[2,3-d]pyrimidin-4-yl)cyclohex-3-en-1-yl)acrylamide]: the half-inhibitory concentration (IC50) came out at 2.9 µM in assay [1], 1.3 µM in assay [2] and 0.00042 µM in assay [3].
For `C=CC(=O)NC1CCC=C(c2ncnc3[nH]cc(-c4ccccc4)c23)C1` (centres unmarked) [Compound 1, N-(3-(5-phenyl-7H-pyrrolo[2,3-d]pyrimidin-4-yl)cyclohex-3-en-1-yl)acrylamide] the same measures were 0.88 µM, 0.47 µM and less than 0.0003 µM.
For `C=CC(=O)NC1C=C(c2ncnc3[nH]cc(-c4ccoc4)c23)CCC1` (centres unmarked) [Compound 16, N-(3-(5-(Furan-3-yl)-7H-pyrrolo[2,3-d]pyrimidin-4-yl)cyclohex-2-en-1-yl)acrylamide] the same measures were 4.9 µM, 1 µM and 0.00077 µM.
For `C/C=C/C(=O)NC1CCC=C(c2ncnc3[nH]cc(-c4ccccc4)c23)C1` (centres unmarked) [Comparative Example 2, (E)-N-(3-(5-Phenyl-7H-pyrrolo[2,3-d]pyrimidin-4-yl)cyclohex-3-en-1-yl)but-2-enamide, reference compound], the IC50 amounted to 0.73 µM in assay [1] and 0.027 µM in assay [3]. Besides, the “JAK3-inhibiting activity attenuated” value in assay [3] (in terms of IC50 value) was no less than 20 times.
Regarding `C=CC(=O)NC1C=C(c2ncnc3[nH]cc(-c4ccccc4)c23)CC1` (centres unmarked) [Compound 10, N-(3-(5-Phenyl-7H-pyrrolo[2,3-d]pyrimidin-4-yl)cyclopent-2-en-1-yl)acrylamide], the figures for the IC50 in assay [2] and in assay [3] were 0.66 µM and 0.00068 µM, respectively.
With `C=CC(=O)NC1CCC=C(c2ncnc3[nH]cc(-c4ncccn4)c23)C1` (centres unmarked) [Comparative Example 8, N-(3-(5-(Pyrimidin-2-yl)-7H-pyrrolo[2,3-d]pyrimidin-4-yl)cyclohex-3-en-1-yl)acrylamide, reference compound], the IC50 in assay [2] is greater than 10 µM; in assay [3] it was 0.0214 µM. Besides, the “JAK3-inhibiting activity attenuated” value in assay [3] (in terms of IC50 value) is given as no less than 20 times.
Take `C1=C(c2ncnc3[nH]ccc23)CCCC1` [Comparative Example 10, 4-(Cyclohex-1-en-1-yl)-7H-pyrrolo[2,3-d]pyrimidine, reference compound]: the results for the IC50 in assay [1], in assay [2] and in assay [3] were 0.414 µM, 0.166 µM and 0.125 µM, respectively. Moreover, the “JAK3-inhibiting activity attenuated” value in assay [3] (in terms of IC50 value) is on record as no less than 100 times. Besides, in assay [3] (in terms of IC50 value), the “selectivity to JAK3 versus JAK1 or JAK2” value is given as “not observed”.
For the molecule `C=CC(=O)NC1CCC=C(c2ncnc3[nH]cc(-c4ccsc4)c23)C1` (centres unmarked) [Compound 3, N-(3-(5-(Thiophen-3-yl)-7H-pyrrolo[2,3-d]pyrimidin-4-yl)cyclohex-3-en-1-yl)acrylamide], the IC50 in assay [1] is 1.5 µM; in assay [2], 0.85 µM; in assay [3] it was less than 0.0003 µM.
In turn, `C=CC(=O)NC1CCC=C(c2ncnc3[nH]cc(-c4cc5ccccc5o4)c23)C1` (centres unmarked) [Comparative Example 9, N-(3-(5-(Benzofuran-2-yl)-7H-pyrrolo[2,3-d]pyrimidin-4-yl)cyclohex-3-en-1-yl)acrylamide, reference compound] registered an IC50 with human PBMC greater than 1 µM.
